Counter-ions that a name gives are not always drawn.

In one test the target is T1, rat NaPi-2b (Rattus norvegicus, UniProt Q9JJ09).
T1 construct: expressed in transfected cells; host or cells: Xenopus oocytes injected with cRNA
T1 sequence (Q9JJ09 1-695): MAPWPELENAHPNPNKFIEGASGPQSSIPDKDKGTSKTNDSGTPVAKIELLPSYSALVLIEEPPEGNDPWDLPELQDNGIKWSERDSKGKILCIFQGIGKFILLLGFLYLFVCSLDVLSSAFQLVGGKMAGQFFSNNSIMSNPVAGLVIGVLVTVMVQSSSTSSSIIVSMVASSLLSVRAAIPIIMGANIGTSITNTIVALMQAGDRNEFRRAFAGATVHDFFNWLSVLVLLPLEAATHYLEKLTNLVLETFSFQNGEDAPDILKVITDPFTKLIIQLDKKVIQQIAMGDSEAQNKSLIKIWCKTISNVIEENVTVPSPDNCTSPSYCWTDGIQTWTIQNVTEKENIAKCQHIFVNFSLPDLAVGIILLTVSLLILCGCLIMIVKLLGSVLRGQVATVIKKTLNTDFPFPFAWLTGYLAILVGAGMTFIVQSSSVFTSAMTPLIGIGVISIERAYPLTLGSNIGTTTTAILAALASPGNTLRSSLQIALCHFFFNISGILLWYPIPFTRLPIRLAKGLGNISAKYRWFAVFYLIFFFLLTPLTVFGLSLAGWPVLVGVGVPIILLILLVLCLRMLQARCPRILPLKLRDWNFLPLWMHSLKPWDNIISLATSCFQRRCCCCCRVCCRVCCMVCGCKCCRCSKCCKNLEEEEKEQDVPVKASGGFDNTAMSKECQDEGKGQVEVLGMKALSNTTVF
The test can be described thus: Sodium-dependent phosphate uptake of Xenopus oocytes which expressed NaPi-2b (32P). To be noted: Xenopus oocytes expressing rat NaPi-2b, 32P radioactive phosphorus; read-out: IC50 (phosphate uptake inhibitory activity). Format: cell-based. The procedure, abridged:
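Rat small-intestine NaPi-2b cRNA injected into Xenopus oocytes, expressed for 2 days. Sodium-dependent phosphate uptake measured with 32P; % inhibition at 300 and 100 μM taken from the same inhibition curve.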
`O=C(Nc1ccc(N2CCCCC2)cc1C(=O)N/N=C/c1ccc(Cl)c(C(F)(F)F)c1)c1cccc(CN2CCc3nc4ncccc4cc3C2)c1` [Compound 897, N-[2-(4-Chloro-3-trifluoromethyl-benzylidene-hydrazinocarbonyl)-4-piperidin-1-yl-phenyl]-3-(7,8-dihydro-5H-1,6,9-triaza-anthracen-6-ylmethyl)-benzamide]: the IC50 was less than 0.3 µM.

In the case of `Cc1ccc(/C=N/NC(=O)c2cc(OCCN3CCCCC3)ccc2NC(=O)c2cccc(CSCCO)c2)cc1C` [Compound 1043, N-[2-(3,4-Dimethyl-benzylidene-hydrazinocarbonyl)-4-(2-piperidin-1-yl-ethoxy)-phenyl]-3-(2-hydroxy-ethylsulfanylmethyl)-benzamide], the IC50 worked out at 8.26 µM.

Consider `COc1ccc(C(=O)Nc2ccc(C)cc2C(=O)N/N=C/c2cccc(C)c2)cc1OC` [Compound 148, 3,4-Dimethoxy-N-[4-methyl-2-(3-methyl-benzylidene-hydrazinocarbonyl)-phenyl]-benzamide], for which the IC50 is 15.6 µM.

For `COc1ccc(NC(=O)c2cccc(CSCC(O)CO)c2)c(C(=O)N/N=C/c2cccc(F)c2)c1` (stereo not shown) [Compound 1017, 3-(2,3-Dihydroxy-propylsulfanylmethyl)-N-[2-(3-fluoro-benzylidene-hydrazinocarbonyl)-4-methoxy-phenyl]-benzamide], the IC50 was determined as 0.87 µM.

In the case of `Cc1ccc(/C=N/NC(=O)c2cc(N3CCCCC3)ccc2NC(=O)c2cccc(CNCCN(CCO)CCO)c2)cc1C` [Compound 913, 3-({2-[Bis-(2-hydroxy-ethyl)-amino]-ethylamino}-methyl)-N-[2-(3,4-dimethyl-benzylidene-hydrazinocarbonyl)-4-piperidin-1-yl-phenyl]-benzamide], the IC50 was 1.65 µM.

For the compound `O=C(Nc1ccc(Br)cc1C(=O)N/N=C/c1ccc(F)cc1)c1ccc(F)cc1` [Compound 106, N-[4-Bromo-2-(4-fluoro-benzylidene-hydrazinocarbonyl)-phenyl]-4-fluoro-benzamide], the half-maximal inhibitory concentration (IC50) was 5.11 µM.

Take `O=C(Nc1ccccc1C(=O)N/N=C/c1cccc(F)c1)c1ccncc1` [Compound 134, N-[2-(3-Fluoro-benzylidene-hydrazinocarbonyl)-phenyl]-isonicotinamide]: the IC50 amounted to 7.82 µM.

As for `O=C(Nc1ccc(Br)cc1C(=O)N/N=C/c1ccc(F)cc1)c1ccc(CSCCCO)cc1` [Compound 276, N-[4-Bromo-2-(4-fluoro-benzylidene-hydrazinocarbonyl)-phenyl]-4-(3-hydroxy-propylsulfanylmethyl)-benzamide], the IC50 was 6.2 µM.

Take `COc1ccc(/C=N/NC(=O)c2cc(Cl)ccc2NC(=O)c2cccc(CSc3nnnn3CCN(C)C)c2)cc1` [Compound 469, N-[4-Chloro-2-(4-methoxy-benzylidene-hydrazinocarbonyl)-phenyl]-3-[1-(2-dimethylamino-ethyl)-1H-tetrazol-5-ylsulfanylmethyl]-benzamide]: the IC50 worked out at 33.2 µM.

Turning to `O=C(Nc1ccc(Br)cc1C(=O)N/N=C/c1ccc(F)cc1)c1ccncc1` [Compound 167, N-[4-Bromo-2-(4-fluoro-benzylidene-hydrazinocarbonyl)-phenyl]-isonicotinamide], the IC50 was 30.2 µM.

`COc1ccc(C(=O)Nc2ccccc2C(=O)N/N=C/c2cccc(F)c2)cc1OC` [Compound 15, N-[2-(3-Fluoro-benzylidene-hydrazinocarbonyl)-phenyl]-3,4-dimethoxy-benzamide]: the IC50 turned out to be 1.41 µM.

For the compound `Cc1ccc(/C=N/NC(=O)c2ccccc2NC(=O)c2ccncc2)cc1` [Compound 203, N-[2-(4-Methyl-benzylidene-hydrazinocarbonyl)-phenyl]-isonicotinamide hydrochloride], the IC50 is less than 3 µM.

As for `CCN(CC)CCN(C)Cc1cccc(C(=O)Nc2ccc(Cl)cc2C(=O)N/N=C/c2ccc(C)cc2)c1` [Compound 382, N-[4-Chloro-2-(4-methyl-benzylidene-hydrazinocarbonyl)-phenyl]-3-{[(2-diethylamino-ethyl)-methyl-amino]-methyl}-benzamide], the IC50 is 1.04 µM.

For `COc1ccc(C(=O)Nc2ccc(Br)cc2C(=O)N/N=C/c2ccc(Cl)cc2)cc1OC` [Compound 60, N-[4-Bromo-2-(4-chloro-benzylidene-hydrazinocarbonyl)-phenyl]-3,4-dimethoxy-benzamide], the IC50 worked out at 1.58 µM.

As to `Cc1ccc(/C=N/NC(=O)c2cc(Br)ccc2NC(=O)c2ccccn2)cc1C` [Compound 499, Pyridin-2-carboxylic acid [4-bromo-2-(3,4-dimethyl-benzylidene-hydrazinocarbonyl)-phenyl]-amide], the IC50 is 0.98 µM.

Regarding `Cc1ccc(/C=N/NC(=O)c2cc(OCCCCF)ccc2NC(=O)c2cccc(CSCCO)c2)cc1` [Compound 1052, N-[4-(4-Fluoro-butoxy)-2-(4-methyl-benzylidene-hydrazinocarbonyl)-phenyl]-3-(2-hydroxy-ethylsulfanylmethyl)-benzamide], the IC50 amounted to 1.33 µM.

`COc1ccc(C(=O)Nc2ccccc2C(=O)N/N=C/c2cccc(C)c2)cc1OC` [Compound 20, 3,4-Dimethoxy-N-[2-(3-methyl-benzylidene-hydrazinocarbonyl)-phenyl]-benzamide]: the IC50 was 2.83 µM.

As for `CCc1ccc(C(=O)Nc2ccc(Br)cc2C(=O)N/N=C/c2ccc(Cl)c(C(F)(F)F)c2)cc1` [Compound 183, N-[4-Bromo-2-(4-chloro-3-trifluoromethyl-benzylidene-hydrazinocarbonyl)-phenyl]-4-ethyl-benzamide], the IC50 was less than 3 µM.

For `CCN(CCO)Cc1cccc(C(=O)Nc2ccc(Cl)cc2C(=O)N/N=C/c2ccc(C)c(C)c2)c1` [Compound 426, N-[4-Chloro-2-(3,4-dimethyl-benzylidene-hydrazinocarbonyl)-phenyl]-3-{[ethyl-(2-hydroxy-ethyl)-amino]-methyl}-benzamide], the IC50 came out at 1.89 µM.

Take `COc1ccc(/C=N/NC(=O)c2cc(Br)ccc2NC(=O)c2ccc(CN3CCC(N4CCCCC4)CC3)cc2)cc1` [Compound 314, 4-[1,4′]Bipiperidinyl-1′-ylmethyl-N-[4-bromo-2-(4-methoxy-benzylidene-hydrazinocarbonyl)-phenyl]-benzamide]: the concentration for half-maximal inhibition (IC50) turned out to be 3.39 µM.

On to `O=C(Nc1ccccc1C(=O)N/N=C/c1ccc(F)cc1)c1cccc(OC(F)(F)F)c1` [Compound 121], for which the IC50 came out at 4.06 µM.

Regarding `Cc1cccc(/C=N/NC(=O)c2cc(Cl)ccc2NC(=O)c2cccnc2)c1` [Compound 186, N-[4-Chloro-2-(3-methyl-benzylidene-hydrazinocarbonyl)-phenyl]-nicotinamide], the IC50 worked out at 10.1 µM.

With `COc1ccc(/C=N/NC(=O)c2cc(OC)ccc2NC(=O)c2cccc(CSCC(O)CO)c2)cc1` (stereo not shown) [Compound 1021, 3-(2,3-Dihydroxy-propylsulfanylmethyl)-N-[4-methoxy-2-(4-methoxy-benzylidene-hydrazinocarbonyl)-phenyl]-benzamide], the IC50 amounted to 5.57 µM.

As for `CC(O)CN(Cc1cccc(C(=O)Nc2ccc(N3CCCCC3)cc2C(=O)NN=Cc2ccc(Cl)c(C(F)(F)F)c2)c1)CC(C)O` (stereo not shown) [Compound 942, 3-{[Bis-(2-hydroxy-propyl)-amino]-methyl}-N-[2-(4-chloro-3-trifluoromethyl-benzylidene-hydrazinocarbonyl)-4-piperidin-1-yl-phenyl]-benzamide], the IC50 came out at 0.2 µM.

As for `COc1ccc(/C=N/NC(=O)c2ccccc2NC(=O)c2ccc(F)cc2)cc1Br` [Compound 102, N-[2-(3-Bromo-4-methoxy-benzylidene-hydrazinocarbonyl)-phenyl]-4-fluoro-benzamide], the IC50 came out at 5.58 µM.

Staying with this test, now noted: phosphate uptake, oocytes expressing rat NaPi-2b; 300 μM, determined from inhibition curve.
Take `CCN1CC(NCc2ccc(-c3nc4ccc(Br)cc4c(=O)n3/N=C/c3ccc(OC)cc3)cc2)CN1CC` [Compound 755, 6-Bromo-2-{4-[(1,2-diethyl-pyrazolidin-4-ylamino)-methyl]-phenyl}-3-[(4-methoxy-benzylidene)-amino]-3H-quinazolin-4-one]: at 300 µM the inhibition was 67.3%.

For `CN(CCCCCCN(C)Cc1cccc(C(=O)Nc2ccc(Cl)cc2C(=O)N/N=C/c2cccc(F)c2)c1)Cc1cccc(C(=O)Nc2ccc(Cl)cc2C(=O)N/N=C/c2cccc(F)c2)c1` [Compound 704, N1-[4-Chloro-2-({2-[(E)-1-(3-fluorophenyl)methylidene]hydrazino}carbonyl}phenyl}-3-{[{6-[(3-{[4-chloro-2-({2-[(E)-1-(3-fluorophenyl)methylidene]hydrazino}carbonyl}-anilino}carbonyl}benzyl}(methyl)amino)hexyl)(methyl)amino]methyl]-benzamide], the inhibition at 300 µM stood at 46.6%.

With `Cc1ccc(/C=N/NC(=O)c2cc(Br)ccc2NC(=O)c2ccc(CN3CCN(c4ccc(F)cc4)CC3)cc2)cc1C` [Compound 717, N-[4-Bromo-2-(3,4-dimethyl-benzylidene-hydrazinocarbonyl)-phenyl]-4-[4-(4-fluoro-phenyl)-piperazin-1-ylmethyl]-benzamide], the inhibition at 300 µM worked out at 53.5%.

A word on the IC50: it is the concentration needed to halve the response being measured. As usually defined, the inhibition is the drop in the measured response relative to a control, in per cent. Read a high inhibition as a strong effect.

The values are drawn from patent publication US8134015B2, “Compound inhibiting in vivo phosphorous transport and medicine containing the same” (Kyowa Hakko Kirin Co., Ltd., priority 2003, dated 2012).
